For data set [1], the target named is Sodium-dependent noradrenaline transporter (Homo sapiens, UniProt P23975). Briefly: DRUGMATRIX: Norepinephrine Transporter radioligand binding (ligand: [125I] RTI-55). Type of data set: cell membranes, MDCK, Membrane. To be noted: mdck; Not Active = under 50% inhibition at 10 µM.
The nature of data set [2]: DRUGMATRIX: Atrial Natriuretic Factor (ANF) radioligand binding (ligand: [125I] ANF (rat)). In kind it is cell membranes, Cavia porcellus, Dunkin-Hartley, Adrenal gland, Membrane. The settings on record: Not Active = under 50% inhibition at 10 µM.
Data set [3] concerns the target T1, 5-hydroxytryptamine receptor 2C (Homo sapiens, UniProt P28335).
T1 sequence (P28335 whole entry): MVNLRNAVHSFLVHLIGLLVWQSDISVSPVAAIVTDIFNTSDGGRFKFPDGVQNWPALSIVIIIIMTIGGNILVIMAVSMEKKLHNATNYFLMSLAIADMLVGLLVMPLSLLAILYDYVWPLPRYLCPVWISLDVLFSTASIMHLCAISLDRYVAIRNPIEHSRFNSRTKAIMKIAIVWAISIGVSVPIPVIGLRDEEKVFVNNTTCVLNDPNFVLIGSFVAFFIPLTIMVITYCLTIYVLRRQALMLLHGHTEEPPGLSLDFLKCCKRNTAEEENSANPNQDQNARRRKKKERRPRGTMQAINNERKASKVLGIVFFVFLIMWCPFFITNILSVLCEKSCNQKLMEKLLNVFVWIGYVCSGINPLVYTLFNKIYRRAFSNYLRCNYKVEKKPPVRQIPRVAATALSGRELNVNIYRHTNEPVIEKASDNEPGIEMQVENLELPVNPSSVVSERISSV
Kind of data set: DRUGMATRIX: Serotonin (5-Hydroxytryptamine) 5-HT2C radioligand binding (ligand: [3H] Mesulergine). Type of data set: cell membranes, CHO-K1, Membrane. The settings on record: Not Active = under 50% inhibition at 10 µM.

A further data set deals with T2, Thromboxane-A synthase (Homo sapiens, UniProt P24557).
T2 sequence (P24557 whole entry): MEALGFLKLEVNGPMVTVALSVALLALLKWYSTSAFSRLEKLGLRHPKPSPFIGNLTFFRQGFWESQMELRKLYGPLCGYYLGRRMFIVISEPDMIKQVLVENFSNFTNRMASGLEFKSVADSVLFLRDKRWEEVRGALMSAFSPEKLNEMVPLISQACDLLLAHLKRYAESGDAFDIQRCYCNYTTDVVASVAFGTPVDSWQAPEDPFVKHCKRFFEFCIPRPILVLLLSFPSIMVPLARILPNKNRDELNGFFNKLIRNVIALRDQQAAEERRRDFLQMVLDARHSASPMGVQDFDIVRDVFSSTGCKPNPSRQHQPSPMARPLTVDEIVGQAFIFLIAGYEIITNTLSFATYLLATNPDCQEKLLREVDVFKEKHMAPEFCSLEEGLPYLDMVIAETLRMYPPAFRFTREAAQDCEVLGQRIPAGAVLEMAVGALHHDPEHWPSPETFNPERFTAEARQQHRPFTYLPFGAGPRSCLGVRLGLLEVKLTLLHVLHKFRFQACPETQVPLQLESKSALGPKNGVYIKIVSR
Kind of data set: biochemical. In kind it is tissue-based, Platelet.

Data set [4] in a line: DRUGMATRIX: Glutamate, NMDA, Agonism radioligand binding (ligand: [3H] CGP-39653). To be noted: Not Active = under 50% inhibition at 10 µM. In kind it is cell membranes, Rattus norvegicus, Wistar, Cerebral cortex, Membrane.
Data set [5] concerns the target Platelet-activating factor receptor (Homo sapiens, UniProt P25105). Kind of data set: biochemical. Type of data set: tissue-based. The settings on record: platelet. Further: in other assays of this panel Not Active means under 50% inhibition at 10 µM.
Data set [6] has as its target T3, Receptor-type tyrosine-protein phosphatase C (Homo sapiens, UniProt P08575).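 Further: inhibition of CD45 enzyme activity measured using DiFMUP as substrate; in other assays of this panel Not Active means under 50% inhibition at 10 µM.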
T3 sequence (P08575 whole entry): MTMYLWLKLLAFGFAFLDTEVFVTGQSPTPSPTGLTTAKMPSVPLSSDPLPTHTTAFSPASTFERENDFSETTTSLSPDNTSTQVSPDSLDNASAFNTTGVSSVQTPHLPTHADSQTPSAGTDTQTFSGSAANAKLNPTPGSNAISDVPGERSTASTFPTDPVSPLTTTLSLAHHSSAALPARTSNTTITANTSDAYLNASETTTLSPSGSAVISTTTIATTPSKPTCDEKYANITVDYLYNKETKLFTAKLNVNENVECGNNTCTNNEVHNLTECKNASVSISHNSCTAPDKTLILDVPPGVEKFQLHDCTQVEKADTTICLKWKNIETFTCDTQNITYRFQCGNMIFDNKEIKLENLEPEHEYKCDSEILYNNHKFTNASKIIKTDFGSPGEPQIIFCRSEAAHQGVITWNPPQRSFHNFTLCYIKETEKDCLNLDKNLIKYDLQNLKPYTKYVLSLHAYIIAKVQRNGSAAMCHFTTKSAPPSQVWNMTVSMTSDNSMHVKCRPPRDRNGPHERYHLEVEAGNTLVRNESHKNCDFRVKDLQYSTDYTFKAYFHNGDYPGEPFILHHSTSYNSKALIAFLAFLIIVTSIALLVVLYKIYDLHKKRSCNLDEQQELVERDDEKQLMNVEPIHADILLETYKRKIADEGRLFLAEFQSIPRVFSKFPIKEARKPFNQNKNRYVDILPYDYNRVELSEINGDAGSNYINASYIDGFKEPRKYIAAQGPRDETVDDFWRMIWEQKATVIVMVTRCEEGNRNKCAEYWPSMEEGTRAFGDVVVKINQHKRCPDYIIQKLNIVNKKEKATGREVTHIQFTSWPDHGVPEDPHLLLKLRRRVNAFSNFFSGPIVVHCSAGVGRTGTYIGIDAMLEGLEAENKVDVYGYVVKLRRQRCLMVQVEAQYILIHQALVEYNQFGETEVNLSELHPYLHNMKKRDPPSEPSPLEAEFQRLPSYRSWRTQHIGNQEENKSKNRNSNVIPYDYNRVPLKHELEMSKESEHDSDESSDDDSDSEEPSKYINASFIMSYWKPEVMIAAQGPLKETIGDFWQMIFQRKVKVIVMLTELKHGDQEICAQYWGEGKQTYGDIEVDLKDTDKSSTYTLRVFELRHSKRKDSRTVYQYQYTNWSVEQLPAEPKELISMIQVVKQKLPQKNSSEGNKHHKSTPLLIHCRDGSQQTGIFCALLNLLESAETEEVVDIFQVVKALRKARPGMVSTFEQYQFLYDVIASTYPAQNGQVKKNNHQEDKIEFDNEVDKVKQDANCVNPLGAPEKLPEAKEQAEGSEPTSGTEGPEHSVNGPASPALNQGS
More on the design: species or system Escherichia coli.

The target in a further data set is Adenosine receptor A2a (Homo sapiens, UniProt P29274). Kind of data set: DRUGMATRIX: Adenosine A2A radioligand binding (ligand: […]). The settings on record: hek293; Not Active = under 50% inhibition at 10 µM. Type of data set: cell membranes, HEK293, Membrane.
Adenosine receptor A2a, sequence (P29274 whole entry): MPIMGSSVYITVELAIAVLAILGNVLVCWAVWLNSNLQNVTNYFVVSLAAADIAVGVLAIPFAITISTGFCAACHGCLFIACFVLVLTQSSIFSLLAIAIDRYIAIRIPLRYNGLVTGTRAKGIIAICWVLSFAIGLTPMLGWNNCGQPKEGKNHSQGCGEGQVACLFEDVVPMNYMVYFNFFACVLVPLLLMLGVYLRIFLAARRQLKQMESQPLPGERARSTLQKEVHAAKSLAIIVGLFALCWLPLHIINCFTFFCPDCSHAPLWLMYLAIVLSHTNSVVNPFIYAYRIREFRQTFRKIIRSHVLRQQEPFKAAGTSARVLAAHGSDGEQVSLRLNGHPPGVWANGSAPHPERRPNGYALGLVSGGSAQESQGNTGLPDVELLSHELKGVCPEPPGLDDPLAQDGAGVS
Data set [7] deals with Voltage-gated inwardly rectifying potassium channel KCNH2 (Homo sapiens, UniProt Q12809). The settings on record: hek293.
Voltage-gated inwardly rectifying potassium channel KCNH2, sequence (Q12809 whole entry): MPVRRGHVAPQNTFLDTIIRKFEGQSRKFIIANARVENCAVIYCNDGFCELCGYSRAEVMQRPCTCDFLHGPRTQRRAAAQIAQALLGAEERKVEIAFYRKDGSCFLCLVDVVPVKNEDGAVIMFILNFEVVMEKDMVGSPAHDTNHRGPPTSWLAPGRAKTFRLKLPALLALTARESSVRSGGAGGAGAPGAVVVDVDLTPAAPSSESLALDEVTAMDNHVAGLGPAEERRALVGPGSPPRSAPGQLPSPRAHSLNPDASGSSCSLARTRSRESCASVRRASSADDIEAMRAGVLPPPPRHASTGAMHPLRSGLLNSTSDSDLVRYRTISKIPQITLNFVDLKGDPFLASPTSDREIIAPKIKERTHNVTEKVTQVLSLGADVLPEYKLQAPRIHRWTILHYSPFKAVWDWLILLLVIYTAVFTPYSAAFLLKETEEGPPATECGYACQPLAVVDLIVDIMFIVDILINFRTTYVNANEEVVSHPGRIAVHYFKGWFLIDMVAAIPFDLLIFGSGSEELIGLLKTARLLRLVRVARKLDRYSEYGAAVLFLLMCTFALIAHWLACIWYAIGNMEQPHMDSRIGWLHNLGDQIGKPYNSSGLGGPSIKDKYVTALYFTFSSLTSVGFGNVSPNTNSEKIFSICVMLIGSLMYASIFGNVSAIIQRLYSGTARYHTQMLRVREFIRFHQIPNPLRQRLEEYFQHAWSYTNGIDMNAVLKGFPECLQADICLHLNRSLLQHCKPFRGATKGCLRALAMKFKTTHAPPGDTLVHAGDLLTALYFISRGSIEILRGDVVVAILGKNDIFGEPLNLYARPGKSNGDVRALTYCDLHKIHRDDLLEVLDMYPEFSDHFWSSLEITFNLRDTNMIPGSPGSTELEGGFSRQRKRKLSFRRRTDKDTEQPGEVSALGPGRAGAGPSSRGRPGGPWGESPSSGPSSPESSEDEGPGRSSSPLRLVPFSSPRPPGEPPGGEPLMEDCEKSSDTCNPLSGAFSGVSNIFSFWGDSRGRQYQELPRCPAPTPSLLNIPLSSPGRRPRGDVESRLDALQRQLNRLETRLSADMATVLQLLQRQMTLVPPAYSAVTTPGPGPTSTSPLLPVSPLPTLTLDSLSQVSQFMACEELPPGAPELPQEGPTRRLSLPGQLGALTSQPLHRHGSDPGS
The target in data set [8] is Sigma non-opioid intracellular receptor 1 (Homo sapiens, UniProt Q99720). Briefly: DRUGMATRIX: Sigma1 radioligand binding (ligand: [3H] Haloperidol). Type of data set: cell membranes, Jurkat, Membrane. The settings on record: Not Active = under 50% inhibition at 10 µM; for Ki: read-out: Ki.
Sigma non-opioid intracellular receptor 1, sequence (Q99720 whole entry): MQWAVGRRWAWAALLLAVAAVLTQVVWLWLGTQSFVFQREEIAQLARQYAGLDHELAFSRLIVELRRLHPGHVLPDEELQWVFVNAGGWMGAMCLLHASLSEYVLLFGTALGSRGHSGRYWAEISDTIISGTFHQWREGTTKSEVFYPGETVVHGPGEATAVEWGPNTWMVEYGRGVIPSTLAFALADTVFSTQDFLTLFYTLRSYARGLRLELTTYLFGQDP

Platelet-activating factor receptor, sequence (P25105 whole entry): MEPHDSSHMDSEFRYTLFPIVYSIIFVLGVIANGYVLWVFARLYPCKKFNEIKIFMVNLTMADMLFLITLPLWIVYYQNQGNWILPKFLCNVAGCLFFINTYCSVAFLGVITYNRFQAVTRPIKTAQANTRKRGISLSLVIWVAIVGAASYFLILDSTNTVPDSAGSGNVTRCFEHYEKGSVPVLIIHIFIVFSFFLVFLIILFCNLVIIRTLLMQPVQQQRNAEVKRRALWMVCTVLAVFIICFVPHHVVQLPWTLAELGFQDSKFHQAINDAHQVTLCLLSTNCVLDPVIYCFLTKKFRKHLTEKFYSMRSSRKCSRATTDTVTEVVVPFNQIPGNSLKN
Sodium-dependent noradrenaline transporter, sequence (P23975 whole entry): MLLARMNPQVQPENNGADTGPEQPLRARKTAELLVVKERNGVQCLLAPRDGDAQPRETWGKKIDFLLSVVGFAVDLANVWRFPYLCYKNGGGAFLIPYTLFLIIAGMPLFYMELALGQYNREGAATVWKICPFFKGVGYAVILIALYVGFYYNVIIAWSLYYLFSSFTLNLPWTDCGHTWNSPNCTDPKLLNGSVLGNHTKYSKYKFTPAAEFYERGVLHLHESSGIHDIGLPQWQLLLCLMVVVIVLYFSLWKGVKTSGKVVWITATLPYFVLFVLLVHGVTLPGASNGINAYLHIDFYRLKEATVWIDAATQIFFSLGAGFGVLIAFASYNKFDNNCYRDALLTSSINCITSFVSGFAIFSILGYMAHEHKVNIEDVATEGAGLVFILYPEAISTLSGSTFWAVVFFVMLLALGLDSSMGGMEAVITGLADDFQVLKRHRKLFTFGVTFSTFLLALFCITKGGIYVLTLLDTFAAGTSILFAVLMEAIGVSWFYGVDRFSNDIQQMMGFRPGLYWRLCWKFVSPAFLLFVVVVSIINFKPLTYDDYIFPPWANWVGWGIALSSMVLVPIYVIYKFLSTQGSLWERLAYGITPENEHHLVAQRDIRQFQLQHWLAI

A word on the IC50: it is the point on the concentration scale where inhibition reaches its midpoint. In general, Ki refers to the dissociation constant of the complex between target and ligand, obtained from inhibition or displacement. With `O=c1cc(-c2ccccc2)oc2c1ccc1ccccc12` [ALPHA-NAPHTHOFLAVONE], the IC50 result in [1] was “Not Active”; in data set [2] it was “Not Active”; in data set [3] (cho-k1), “Not Active”; at Thromboxane-A synthase (read-out: IC50), 6760 nM; in data set [4], “Not Active”; in [5], “Not Active”. The concentration for half-maximal inhibition (IC50) entry (in data set [6]; at Adenosine receptor A2a; in [7]) was “Not Active” each time. Also, the Ki entry in data set [2], in data set [4] and in data set [7] was “Not Active” in each case.
On to `CC1(C)S[C@@H]2[C@H](NC(=O)[C@H](N)c3ccc(O)cc3)C(=O)N2[C@H]1C(=O)O` [AMOXICILLIN], for which the half-inhibitory concentration (IC50) entry (in [1]; in data set [2]; in data set [3] (cho-k1); in data set [8] (jurkat); against Thromboxane-A synthase (platelet); in [4]) was “Not Active” in each case. Further, the IC50 result (in data set [5]; in data set [6]; at Adenosine receptor A2a) was “Not Active” each time. Also, the Ki result in [2] and in data set [4] was “Not Active” in each case.
Regarding `COCc1c(C(C)C)nc(C(C)C)c(/C=C/[C@@H](O)C[C@@H](O)CC(=O)O)c1-c1ccc(F)cc1` [CERIVASTATIN], the IC50 result (in data set [2]; in [3] (cho-k1); in data set [8] (jurkat); against Thromboxane-A synthase (platelet); in data set [4]; in [5]) was “Not Active” each time. Besides, the IC50 entry (in [6]; at Adenosine receptor A2a; in [7]) was “Not Active” in each case. The Ki entry in [2], in data set [4] and in data set [7] was “Not Active” throughout.
With `CN(C)CCCC1(c2ccc(F)cc2)OCc2cc(C#N)ccc21` (stereo not drawn) [CITALOPRAM], the IC50 result in data set [2] was “Not Active”; in data set [8] (read-out: IC50), 398 nM; against Thromboxane-A synthase (platelet), “Not Active”; in data set [4], “Not Active”; in data set [5], “Not Active”; in [6], “Not Active”. Moreover, on Adenosine receptor A2a, the IC50 entry is recorded as “Not Active”. Besides, the Ki result is “Not Active” in [2], 167 nM in data set [8] and “Not Active” in [4].
In the case of `Nc1nc2c(ncn2COC(CO)CO)c(=O)[nH]1` [GANCICLOVIR], the IC50 entry (in data set [2]; in data set [3] (cho-k1); in data set [8] (jurkat); against Thromboxane-A synthase (platelet); in data set [4]; in [5]) was “Not Active” each time. The IC50 result (in data set [6]; on Adenosine receptor A2a; in data set [7]) was “Not Active” in each case. In addition, the inhibitory constant (Ki) result in data set [2], in [4] and in data set [7] was “Not Active” throughout.
For the compound `CNCCC=C1c2ccccc2CCc2ccccc21` [NORTRIPTYLINE], the concentration for half-maximal inhibition (IC50) entry (in data set [2]; in data set [8] (jurkat); at Thromboxane-A synthase (platelet); in [4]; in [5]; in [6]) was “Not Active” each time. The concentration for half-maximal inhibition (IC50) result (at Adenosine receptor A2a; in [7]) was “Not Active” throughout. Further, the Ki result in [2], in [4] and in data set [7] was “Not Active” throughout.
`CC1COc2c(N3CCN(C)CC3)c(F)cc3c(=O)c(C(=O)O)cn1c23` (stereo not drawn) [OFLOXACIN]: the concentration for half-maximal inhibition (IC50) entry (in data set [2]; in data set [3] (cho-k1); in data set [8] (jurkat); against Thromboxane-A synthase (platelet); in [4]; in data set [5]) was “Not Active” each time. The IC50 entry (in [6]; at Adenosine receptor A2a; in data set [7]) was “Not Active” in each case. Besides, the Ki result in [2], in data set [4] and in data set [7] was “Not Active” in each case.
For the compound `Fc1ccc([C@@H]2CCNC[C@H]2COc2ccc3c(c2)OCO3)cc1` [PAROXETINE], the IC50 result in data set [2] is “Not Active”; in [3] (cho-k1), “Not Active”; in data set [8] (read-out: IC50), 5370 nM; against Thromboxane-A synthase (platelet), “Not Active”; in data set [4], “Not Active”; in data set [5], “Not Active”. In addition, the IC50 entry (in [6]; on Adenosine receptor A2a) was “Not Active” each time. Moreover, the Ki entry in data set [2] is “Not Active”; in data set [8] it was 2260 nM; in data set [4], “Not Active”.
As for `COc1ccc(CN(CCN(C)C)c2ccccn2)cc1` [PYRILAMINE], the IC50 result in data set [2] was “Not Active”; in [3] (read-out: IC50), 1130 nM; in data set [8] (read-out: IC50), 1560 nM; at Thromboxane-A synthase (platelet) it was “Not Active”; in [4] it was “Not Active”; in [5] it was “Not Active”. Moreover, the half-maximal inhibitory concentration (IC50) entry (in [6]; at Adenosine receptor A2a) was “Not Active” throughout. Further, the inhibitory constant (Ki) entry in data set [2] was “Not Active”; in [3] (read-out: Ki), 592 nM; in data set [8], 655 nM; in data set [4], “Not Active”.

(Values after ChEMBL document CHEMBL1909046, “DrugMatrix in vitro pharmacology data”.)
